# Laboratory results from paper PMC10313368 (The Journal of Clinical Investigation, 2023).
# Where “and” joins values, the source holds several entries; their conditions need not be identical. Equal entries are not always repeated.
# Columns and labels:
# [1] = tested on: OIR mice; assay: Retinal NV in the oxygen-induced retinopathy (OIR) mouse model; format: in vivo; set-up: Figure 14 C (retinal NV, OIR) / Figure 14 E (retinal NV, OIR): unit not given here
# Source text: To characterize the contribution of these other HIF-regulated angiogenic factors to the promotion of ischemia-driven retinal NV in vivo, we used the classic oxygen-induced retinopathy (OIR) model characterized by Smith and colleagues ([35]). In stage 1 of this model, P7 pups are exposed to hyperoxia (75% O2) for 5 consecutive days (P7–P12), resulting in obliteration of the posterior retinal vasculature. In stage 2, pups (at P12) are returned to room air (21% O2). The resulting relative ischemia promotes the expression of angiogenic mediators that stimulate the development of retinal NV (peaking at P17; Figure 2A). […]
# Animal studies. Eight-week-old pathogen-free female C57BL/6 mice were obtained from The Jackson Laboratory (JAX). Timed pregnant C57BL/6 mice were obtained from Charles River Laboratories. Mice heterozygous for HIF-1α have been previously described (2). Mice heterozygous for HIF-2α (strain number: 003266; common name: EPAS1 KO) were purchased […]
# OIR mouse model. OIR experiments were performed as previously described (1, 3). Briefly, C57BL/6 mice were placed in 75% O2 on P7. On P12, the mice were returned to room air and were […]
# (or vehicle) by intravitreal injection. Mice with body weight less than 6 g at P17 were excluded […]
# from analysis. Data were collected from both males and females and the results were combined since there was no apparent difference between sexes. Representative images for selected time points from a minimum of three independent experiments are shown. Data from 3-8 pups were obtained at each time point. […]
# Intraperitoneal (IP) injections. […]
# intraperitoneally using an insulin syringe in OIR pups. […]
# the peritoneal cavity of neonatal C57BL/6 mice and STZ mice at indicated times, and the retinal vasculature and lysates for WB and qPCR were assessed at P17.
# Intraocular injections. Intravitreal injections were performed with a PLI-100A Pico-liter Microinjector (Warner Instruments, Harvard Bioscience) using pulled-glass micropipettes. Each micropipette was calibrated to deliver a 1 μl volume on depression of a foot switch. The mice were anesthetized with a ketamine (100 mg/kg) and xylazine (5mg/kg) mixture, and under a dissecting microscope, the sharpened tip of the micropipette was passed through the sclera just posterior to the limbus into the vitreous cavity and the foot switch was depressed, which caused fluid to […]
# penetrate into the vitreous space. […]
# mice for vascular permeability test, retinal vasculature, and lysates for WB and qPCR analysis.
# Immunoﬂuorescence assays. Details for antibodies are provided in Supplemental Table 1.
# Immunofluorescence assays in retinal organoids and mouse retinal tissues were performed as previously described (4). Briefly, mice were sacrificed using CO2 asphyxiation, and the eyes were enucleated and fixed with a solution of 4% paraformaldehyde in PBS (Thermo Scientific™) for two hours at RT, followed by washing with PBS for 10 minutes in a shaker. Retinas were isolated and incubated in 0.5% BSA solution overnight at 4 °C. Retinas were then washed with PBS 3 times for 10 minutes in the shaker and stained with isolectin B4 (Invitrogen; 1:200 dilution in PBS) overnight at 4 °C. After washing 3 times for 10 minutes each in the shaker, the retinas were mounted. Images were captured with Zeiss fluorescent microscope. Eight fields per eye (2 fields per petal) including area of neovascularization were selected and fluorescence intensity was measured by ImageJ software. […]
# The eyes were enucleated and immediately immersed in 4% (wt/vol) paraformaldehyde for 2 hours at room temperature. Retinas were isolated and wholemounts prepared on clean glass slides and mounted vitreous side up under coverslips with antifade medium (Vectashield; Vector Laboratories, Burlingame, CA). Images were captured by Zeiss fluorescent microscope or confocal microscopy and fluorescence was quantified by the image J software (National Institutes
# [2] = tested on: retinal ganglion cells (RGCs); assay: Retinal histology (H&E), RBPMS staining and quantitation of RGCs, ONL/INL thickness after intraocular injection; format: in vivo, mouse
# [3] = tested on: adult mice; conditions: i.p. 5 consecutive days, doses up to 80 mg/kg; cited from earlier work
# [4] = molecular target: HIF-1α (Homo sapiens, UniProt Q16665); assay: Immunoblot of HIF-1α accumulation in D120 hiPSC-derived retinal organoids in 1% O2; format: cell-based; set-up: endogenous in cells; conditions: 1% O2 12 hours, 32-134D
# HIF-1α, sequence (Q16665 whole entry): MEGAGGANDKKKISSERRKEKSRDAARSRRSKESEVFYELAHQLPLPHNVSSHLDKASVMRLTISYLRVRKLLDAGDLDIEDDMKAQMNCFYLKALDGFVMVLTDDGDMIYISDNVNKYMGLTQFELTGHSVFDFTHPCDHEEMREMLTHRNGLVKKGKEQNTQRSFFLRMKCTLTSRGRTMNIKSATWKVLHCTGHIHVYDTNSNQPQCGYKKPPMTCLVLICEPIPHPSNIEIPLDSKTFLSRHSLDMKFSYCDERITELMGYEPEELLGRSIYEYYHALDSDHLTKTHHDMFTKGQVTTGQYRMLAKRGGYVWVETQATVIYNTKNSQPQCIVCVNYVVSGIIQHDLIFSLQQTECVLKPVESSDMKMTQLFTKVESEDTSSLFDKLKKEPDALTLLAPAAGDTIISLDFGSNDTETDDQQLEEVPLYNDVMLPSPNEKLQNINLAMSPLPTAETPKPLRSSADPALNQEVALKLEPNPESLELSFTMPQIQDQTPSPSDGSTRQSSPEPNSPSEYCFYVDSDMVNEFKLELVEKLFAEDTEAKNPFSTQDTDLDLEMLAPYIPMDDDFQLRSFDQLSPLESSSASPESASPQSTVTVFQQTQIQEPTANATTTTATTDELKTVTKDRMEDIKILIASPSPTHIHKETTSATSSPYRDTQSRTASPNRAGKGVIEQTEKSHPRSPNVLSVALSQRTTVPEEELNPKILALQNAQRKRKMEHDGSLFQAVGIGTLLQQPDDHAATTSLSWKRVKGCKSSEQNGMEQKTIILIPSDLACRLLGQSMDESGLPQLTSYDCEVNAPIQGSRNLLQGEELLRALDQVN
# Description: An hiPSC line derived from CD34^+ cord blood was used in this study (A18945, Thermo Fisher Scientific) ([70]). Undifferentiated hiPSCs and derived retinal organoids were routinely tested for mycoplasma contamination by PCR. Cell culture, retinal differentiation, and organoid formation were conducted as previously described ([71]). Retinal organoids at D120 were used for experiments.
# (§1) Immunoblot assays. Cells, neurosensory retina, and D120 retinal organoid lysates were subjected
# (§2) to 4–15% gradient SDS/PAGE (Invitrogen). Immunoblot (Western blot or WB) assays were
# (§3) performed as previously described (1). […]
# [5] = molecular target: HIF-2α (Homo sapiens, UniProt Q99814); assay: Immunoblot of HIF-2α accumulation in MIO-M1 cells cultured in hypoxia; format: cell-based; set-up: endogenous in cells; host or cells: MIO-M1; conditions: MIO-M1, 1 μM 32-134D, 1% O2 4 hours
# HIF-2α, sequence (Q99814 whole entry): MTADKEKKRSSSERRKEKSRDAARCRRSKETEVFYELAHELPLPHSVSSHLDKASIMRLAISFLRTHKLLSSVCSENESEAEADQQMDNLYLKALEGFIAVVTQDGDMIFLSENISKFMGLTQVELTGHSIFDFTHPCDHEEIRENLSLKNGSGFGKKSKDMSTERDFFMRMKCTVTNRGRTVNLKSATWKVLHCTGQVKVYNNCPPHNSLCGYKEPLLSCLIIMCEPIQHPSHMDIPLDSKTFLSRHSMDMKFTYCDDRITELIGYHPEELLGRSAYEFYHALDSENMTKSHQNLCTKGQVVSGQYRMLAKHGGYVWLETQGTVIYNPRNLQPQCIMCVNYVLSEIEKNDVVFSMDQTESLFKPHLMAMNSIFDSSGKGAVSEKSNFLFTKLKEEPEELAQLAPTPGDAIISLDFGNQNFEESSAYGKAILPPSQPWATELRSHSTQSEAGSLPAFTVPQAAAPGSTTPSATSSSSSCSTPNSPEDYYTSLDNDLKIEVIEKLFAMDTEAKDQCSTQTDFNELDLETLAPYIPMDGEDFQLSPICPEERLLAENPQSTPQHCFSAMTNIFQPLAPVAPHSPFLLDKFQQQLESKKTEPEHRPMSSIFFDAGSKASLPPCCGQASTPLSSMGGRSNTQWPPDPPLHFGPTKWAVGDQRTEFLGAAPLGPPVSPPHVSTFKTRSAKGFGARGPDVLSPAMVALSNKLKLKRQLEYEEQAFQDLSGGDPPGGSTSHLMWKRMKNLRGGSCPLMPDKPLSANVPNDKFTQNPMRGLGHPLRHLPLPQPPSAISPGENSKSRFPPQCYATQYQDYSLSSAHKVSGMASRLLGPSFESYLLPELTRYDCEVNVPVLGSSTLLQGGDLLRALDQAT
# Description: MIO-M1, HUVECs, and ARPE19 cells were cultured in DMEM with 10% (vol/vol) FBS (Quality Biological) and 1% penicillin/streptomycin (Cellgro). A hypoxic chamber (Coy Laboratory Product Inc.; Two Glove Model) with 5% CO2, 94% N2, and 1% O2 gas concentration at 37°C was used to culture hypoxic cells. The control cells were cultured in an incubator maintained at 37°C, with 21% O2 and 5% CO2. […] Aflibercept was obtained from the Johns Hopkins University Pharmacy.
# as §1, §2, §3
# [6] = OIR mice, Figure 10E, individual values
smiles,measurement,setting,value
"Brc1ccc2c(-c3csc(-c4c[nH]c5c(Br)cccc45)n3)c[nH]c2c1 [32-134D, 4-(6-bromo-1H-indol-3-yl)-2-(7-bromo-1H-indol-3-yl)thiazole]",retinal NV in OIR mice (in words),[1]; 5 consecutive days of i.p. injections 20 mg/kg 32-134D,marked reduction in retinal NV
same,"Figure 14 C (retinal NV, OIR)","[1]; 14ng intraocular, individual values",3.954 and 13.1715 and 11.5498 and 7.756 and 10.0719 and 10.2983
same,"Figure 14 C (retinal NV, OIR)","[1]; 70ng intraocular, individual values",3.009 and 6.226 and 3.283 and 2.049 and 6.5224 and 7.021
same,"Figure 14 E (retinal NV, OIR)","[1]; Figure 14E, 280ng intraocular, individual values",3.652 and 2.167 and 0.762 and 1.534 and 2.454 and 1.3869
same,avascular area (%),[1]; [6],39.7919% and 29.3948% and 27.2246% and 38.1203% and 35.7742% and 31.6081% and 33.2821% and 34.1%
same,neovascular area (%),[1]; [6],6.529% and 6.16% and 5.906% and 5.171% and 3.4% and 5.22% and 4.584% and 1.45%
same,inhibition of retinal NV at P17,"[1]; OIR mice, single intraocular injection 32-134D 14 ng at P12",~75%
same,inhibition of retinal NV at P17,"[1]; OIR mice, single intraocular injection 32-134D 280 ng at P12",approximately 85%
same,retinal histology including GCL,"[2]; 32-134D 210 or 350 ng intraocular, 35 days",normal histology
same,number of RGCs on retinal flat mounts (in words),"[2]; 32-134D at the highest doses tested, 35 days",unaffected
same,ONL or INL thickness versus vehicle (in words),"[2]; 32-134D single dose 350 ng, 5 weeks",failed to demonstrate any changes
same,therapeutic window following intraocular administration,"[2]; 32-134D, mice",wide therapeutic window
same,"systemic tolerability (appearance, behavior, body weight, hemoglobin, hematocrit)",[3],well tolerated
same,accumulation of HIF-1α protein,[4],effectively prevented accumulation
same,HIF-2α protein accumulation in response to hypoxia,[5],decreased
